Measured values: ChEMBL document CHEMBL1151967, “Cytotoxic biscembranes from the soft coral Sarcophyton glaucum” (J Nat Prod, 2009)

Tested on: HL-60
Experiment: Cytotoxicity against human HL60 cells
Format: functional, cell-based

| SMILES | IC50 |
| --- | --- |
| COC(=O)[C@]12CC(=O)[C@H](C(C)C)CC(=O)/C(C)=C/CC/C(C)=C\C(=O)[C@H]1CC(C)=C1C[C@H](O)[C@](C)(O)[C@H]3CC[C@@](C)(O)[C@H](CC/C(C)=C/[C@@H]12)O3 [BISGLAUCUMLIDE E] | 41 µM |
| COC(=O)[C@]12CC(=O)/C=C(/C)CC/C=C(\C)C(=O)C[C@@H](C(C)C)C(=O)[C@H]1CC(C)=C1C[C@H](O)[C@](C)(O)[C@H]3CC[C@@](C)(O)[C@H](CC/C(C)=C/[C@@H]12)O3 [BISGLAUCUMLIDE I] | 44.1 µM |
| COC(=O)[C@]12CC(=O)[C@H](C(C)C)CC(=O)/C(C)=C\CC/C(C)=C/C(=O)[C@H]1CC(C)=C1C[C@H](OC(C)=O)[C@](C)(O)[C@H]3CC[C@@](C)(O)[C@H](CC/C(C)=C/[C@@H]12)O3 [BISGLAUCUMLIDE F] | 13.3 µM |
| COC(=O)[C@]12CC(=O)[C@H](C(C)C)CC(=O)/C(C)=C/CC/C(C)=C/C(=O)[C@H]1CC(C)=C1C[C@H](O)[C@](C)(O)[C@H]3CC[C@](C)(O3)[C@@H](O)CC/C(C)=C/[C@@H]12 [BISGLAUCUMLIDE G] | 58 µM |
| COC(=O)[C@]12CC(=O)/C=C(\C)CC/C=C(\C)C(=O)C[C@@H](C(C)C)C(=O)[C@H]1CC(C)=C1C[C@H](OC(C)=O)[C@](C)(O)[C@H]3CC[C@@](C)(O)[C@H](CC/C(C)=C/[C@@H]12)O3 [BISGLAUCUMLIDE K] | 29.8 µM |
| COC(=O)[C@]12CC(=O)[C@H](C(C)C)CC(=O)/C(C)=C/CC/C(C)=C\C(=O)[C@H]1CC(C)=C1C[C@H](O)[C@](C)(O)[C@H]3CC[C@@](C)(O3)[C@@H](O)CC/C(C)=C/[C@@H]12 [BISGLAUCUMLIDE H] | 47.8 µM |
